US10006918B2, “Fluorogenic hydrazine-substituted compounds” (LIFE TECHNOLOGIES CORPORATION, priority 2008, dated 2018)

Assay: Aldehyde reactivity of compounds: fluorogenic reaction with acetaldehyde in phosphate buffer, excitation/emission spectra
Type: physicochemical
Protocol: Spectra were taken at pH 6 in a 50 mM phosphate buffer solution.
Spectra were taken at pH 6 in 50 mM phosphate buffer solution.
A sample of Compound 2 (5 mg, 0.0126 mmol) is dissolved in 10 ml of pH 6.5, 50 mmol phosphate buffer solution. To this non-fluorescent solution, is added 25 ul, 1 mol solution of acetaldehyde in water at room temperature. […] The reaction is complete in 10 minutes to give a stable […] analog. Its absorption max is at 548 nm and emission max is at 580 nm (see FIGS. 3A and B).

[1] = after reaction with acetaldehyde, pH 6.5 phosphate buffer
[2] = aldehyde-reacted, pH 6, 50 mM phosphate buffer, FIG. 3B

absorption max of acetaldehyde reaction product [1]: 548 nm
emission max of acetaldehyde reaction product [1]: 580 nm
emission spectra maximum, aldehyde-reacted compound [2]: 581 nm
excitation maximum, aldehyde-reacted compound [2]: 548 nm
excitation maximum, un-reacted compound (un-reacted dye, FIG. 3A): 519 nm
Compound: NN=c1ccc2c(-c3ccccc3S(=O)(=O)O)c3ccc(NN)cc3oc-2c1 [Compound 2, 2-(6-hydrazinyl-3-hydrazono-3H-xanthen-9-yl)benzenesulfonate]
fluorescence of solution after addition of acetaldehyde (25 ul 1 mol acetaldehyde in water, room temperature, pH 6.5 phosphate buffer, within a few minutes): highly fluorescent
change of fluorescence upon reaction with an aldehyde (emission spectra before and after contact with acetaldehyde) (acetaldehyde, pH 6, 50 mM phosphate buffer, FIG. 1): significant fluorescent increase
time to complete reaction with acetaldehyde (room temperature, pH 6.5, 50 mmol phosphate buffer): 10 min
